For eleven compounds, EC50, Activity and Ratio EC50 results are on record in ChEMBL document CHEMBL4145505, “Rational design, chemical synthesis and biological evaluation of novel biguanides exploring species-specificity responsiveness of TAAR1 agonists” (Eur J Med Chem, 2018).

In assay [1] the target is T1, Trace amine-associated receptor 5 (Mus musculus, UniProt Q5QD14).
T1 sequence (Q5QD14 whole entry): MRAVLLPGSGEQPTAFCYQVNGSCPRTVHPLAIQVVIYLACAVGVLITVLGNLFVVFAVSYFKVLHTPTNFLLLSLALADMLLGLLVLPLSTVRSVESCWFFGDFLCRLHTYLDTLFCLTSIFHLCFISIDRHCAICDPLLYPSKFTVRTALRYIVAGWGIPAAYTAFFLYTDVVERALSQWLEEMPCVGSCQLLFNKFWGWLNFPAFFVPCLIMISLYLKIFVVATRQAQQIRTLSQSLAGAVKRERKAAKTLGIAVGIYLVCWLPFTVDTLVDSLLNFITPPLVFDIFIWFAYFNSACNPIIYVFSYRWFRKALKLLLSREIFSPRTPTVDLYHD
The assay is described as follows: Agonist activity at mouse TAAR5 expressed in HEK293 cells assessed as cAMP accumulation after 20 mins by BRET assay. Format: functional, cell-based.

For assay [2], the target named is Trace amine-associated receptor 1 (Mus musculus, UniProt Q923Y8). The assay can be described thus: Agonist activity at mouse TAAR1 expressed in HEK293 cells assessed as cAMP accumulation after 20 mins by BRET assay. Format: functional, cell-based. In general terms: cAMP levels reflect the balance of adenylyl cyclase and phosphodiesterase activity.
Chain of Trace amine-associated receptor 1 (Mus musculus, UniProt Q923Y8) (Q923Y8 whole entry): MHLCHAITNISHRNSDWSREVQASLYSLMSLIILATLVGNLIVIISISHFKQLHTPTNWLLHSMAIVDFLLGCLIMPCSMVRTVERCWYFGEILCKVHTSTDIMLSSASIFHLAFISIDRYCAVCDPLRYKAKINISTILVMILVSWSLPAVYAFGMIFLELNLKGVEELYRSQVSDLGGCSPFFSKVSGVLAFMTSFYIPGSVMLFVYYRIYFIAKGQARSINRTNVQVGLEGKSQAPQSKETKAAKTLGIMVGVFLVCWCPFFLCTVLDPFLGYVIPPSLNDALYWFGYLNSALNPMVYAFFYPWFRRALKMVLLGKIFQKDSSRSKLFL
Assay [3] concerns the target Trace amine-associated receptor 1 (Mus musculus) (UniProt Q923Y8). The assay can be described thus: Agonist activity at mouse TAAR1 expressed in HEK293 cells assessed as cAMP accumulation at 10 uM after 20 mins by BRET assay relative to beta-PEA. Format: functional, cell-based.
For assay [4], the target named is T2, Trace amine-associated receptor 1 (Homo sapiens, UniProt Q96RJ0).
T2 sequence (Q96RJ0 whole entry): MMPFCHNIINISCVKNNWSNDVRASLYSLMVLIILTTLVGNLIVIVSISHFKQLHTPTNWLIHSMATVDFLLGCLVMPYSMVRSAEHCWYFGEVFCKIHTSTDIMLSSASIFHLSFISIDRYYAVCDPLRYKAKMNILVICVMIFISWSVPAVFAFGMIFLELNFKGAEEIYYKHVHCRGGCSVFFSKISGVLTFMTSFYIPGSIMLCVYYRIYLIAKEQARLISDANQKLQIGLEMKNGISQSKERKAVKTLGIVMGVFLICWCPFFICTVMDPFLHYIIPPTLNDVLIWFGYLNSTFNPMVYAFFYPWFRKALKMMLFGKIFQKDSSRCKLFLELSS
The assay can be described thus: Agonist activity at human TAAR1 expressed in HEK293 cells assessed as cAMP accumulation after 20 mins by BRET assay. It counts as functional, cell-based.

Assay [5] addresses T3, Trace amine-associated receptor 1 (Homo sapiens) (UniProt Q96RJ0).
T3 sequence (whole entry): T2 sequence (Q96RJ0 whole entry)
The assay can be described thus: Agonist activity at human TAAR1 expressed in HEK293 cells assessed as cAMP accumulation at 10 uM after 20 mins by BRET assay relative to beta-PEA. It counts as functional, cell-based.

Assay [6] in a line: Selectivity ratio of EC50 for mouse TAAR1 to EC50 for human TAAR1.

Chain of Trace amine-associated receptor 1 (Mus musculus) (Q923Y8 whole entry): as the sequence (Q923Y8 whole entry) above

On to `N=C(N)/N=C(\N)N1CCN(c2ccc(Cl)cc2)CC1`, for which, in assay [1], the EC50 is greater than 10 µM.

With `N=C(N)/N=C(\N)N1CCN(c2ccccn2)CC1`, in assay [1], the EC50 is greater than 10 µM.

Consider `NCCc1ccccc1` [PHENETHYLAMINE], for which the 50% effective concentration (EC50) in assay [2] came to 0.12 µM.

Take `N=C(N)/N=C(\N)N1CCN(c2ccccc2Cl)CC1`: the Activity in assay [3] came out at 57%. The values for the EC50 in assay [2] and in assay [1] were 2.66 µM and greater than 10 µM, respectively.

On to `N=C(N)/N=C(\N)N1CCN(c2cccc(Cl)c2)CC1`, for which the EC50 in assay [1] is greater than 10 µM.

Take `N=C(N)NC(=N)N1CCN(c2ccccc2)CC1`: the Activity in assay [3] is 46%; in assay [5] it was 81%. The EC50 in assay [4] was 1.38 µM; in assay [2], 2.38 µM; in assay [1], greater than 10 µM. Further, the Ratio EC50 in assay [6] came out at 1.7.

For `COc1ccccc1N1CCN(/C(N)=N/C(=N)N)CC1`, the EC50 in assay [1] was greater than 10 µM.

As to `N=C(N)/N=C(\N)N1CCN(c2cccc(C(F)(F)F)c2)CC1`, in assay [1], the EC50 is greater than 10 µM.

In the case of `COc1ccc(N2CCN(/C(N)=N/C(=N)N)CC2)cc1`, the EC50 in assay [4] is 11.4 µM; in assay [1] it was greater than 10 µM. Moreover, in assay [5], the Activity worked out at 110%.

For `N=C(N)/N=C(\N)N1CCN(c2ncccn2)CC1`, the Activity in assay [3] turned out to be 40%. The EC50 in assay [2] is 9 µM; in assay [1], greater than 10 µM.

Consider `COc1cccc(N2CCN(/C(N)=N/C(=N)N)CC2)c1`, for which, in assay [1], the EC50 is greater than 10 µM.

A word on the EC50: it is the concentration at which the effect is half-maximal.
